Assay results: ChEMBL document CHEMBL1201862, “PubChem BioAssay data set” (2004)
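Five compound concentrations were applied to cells in 96-well plates for 48 hours; endpoints were derived by simple linear interpolation of the resulting dose-response curve. GI50 marks 50% less growth.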 Activity calls are given as the source filed them. Cut-off read from the data, not from the text of the source: active = GI50 up to about 1.1 µM and inactive = higher.

How the values were obtained:
Assay in all cases: NCI-60 cell line screen, 48 h
SF-295 = system: SF-295
NCI-H23 = system: NCI-H23
HCT-15 = system: HCT-15
OVCAR-8 = system: OVCAR-8
NCI-H460 = system: NCI-H460
A549 = system: A549
A498 = system: A498
MOLT-4 = system: MOLT-4
K562 = system: K562
BT-549 = system: BT-549
IGROV-1 = system: IGROV-1
SF-268 = system: SF-268
SR = system: SR
SNB-75 = system: SNB-75
OVCAR-3 = system: OVCAR-3
UACC-62 = system: UACC-62
EKVX = system: EKVX
MDA-MB-231 = system: MDA-MB-231
SF-539 = system: SF-539
SW-620 = system: SW-620

| Compound | GI50 (SF-295) | GI50 (NCI-H23) | GI50 (HCT-15) [µM] | GI50 (OVCAR-8) | GI50 (NCI-H460) | GI50 (A549) | GI50 (A498) | GI50 (MOLT-4) | GI50 (K562) | GI50 (BT-549) | GI50 (IGROV-1) | GI50 (SF-268) | GI50 (SR) | GI50 (SNB-75) | GI50 (OVCAR-3) | GI50 (UACC-62) | GI50 (EKVX) | GI50 (MDA-MB-231) | GI50 (SF-539) | GI50 (SW-620) |
| --- | --- | --- | --- | --- | --- | --- | --- | --- | --- | --- | --- | --- | --- | --- | --- | --- | --- | --- | --- | --- |
| O=CCCCCCOCc1ccccc1 | 30.6 µM (inactive) | 50.7 µM (inactive) | 37.4 | > 69.8 µM (inactive) | 23.3 µM (inactive) | 43.6 µM (inactive) | > 100 µM (inactive) | 16.9 µM (inactive) | 9.98 µM (inactive) | > 100 µM (inactive) | 40.7 µM (inactive) | > 100 µM (inactive) | 39.6 µM (inactive) | > 78.2 µM (inactive) | > 74 µM (inactive) | > 58.1 µM (inactive) | > 100 µM (inactive) | > 87.1 µM (inactive) | > 100 µM (inactive) | 60.1 µM (inactive) |
| COc1cccc2c1C(=O)C(=O)c1c-2oc(=O)c2cc(C)cc(OC)c12 | 45.3 µM (inactive) | 19.3 µM (inactive) | 13.4 | 14.9 µM (inactive) | > 75 µM (inactive) | > 75 µM (inactive) | > 75 µM (inactive) | 23 µM (inactive) | 22.3 µM (inactive) | 13.5 µM (inactive) | 16.7 µM (inactive) | 17.3 µM (inactive) | 8.91 µM (inactive) | 22.6 µM (inactive) | 15.7 µM (inactive) | 31 µM (inactive) | 22.5 µM (inactive) | 21.3 µM (inactive) | 63 µM (inactive) | 29.4 µM (inactive) |
| O=S(=O)([C-]([I+]c1ccccc1)S(=O)(=O)C(F)(F)C(F)(F)C(F)(F)C(F)(F)F)C(F)(F)C(F)(F)C(F)(F)C(F)(F)F | 16.6 µM (inactive) | 19.1 µM (inactive) | 15.2 | > 10 µM (inactive) | 17.7 µM (inactive) | 18.7 µM (inactive) | 14.8 µM (inactive) | 3.51 µM (inactive) | 4.11 µM (inactive) | 15.2 µM (inactive) | 19.1 µM (inactive) | 18.5 µM (inactive) | 4.14 µM (inactive) | 14.8 µM (inactive) | 15.9 µM (inactive) | 17.9 µM (inactive) | 13.5 µM (inactive) | 24.1 µM (inactive) | 15.5 µM (inactive) | 5.69 µM (inactive) |
| COc1cccc2c1C(=O)c1c(O)c3c(c(O)c1C2=O)CC(O)(C(O)CO)CC3OC1CC2C(OC3COCC(C#N)N32)C(C)O1 (stereo not given) | < 0.01 µM (active) | < 0.01 µM (active) | < 0.01 | < 0.01 µM (active) | < 0.01 µM (active) | < 0.01 µM (active) | < 0.01 µM (active) | < 0.01 µM (active) | < 0.01 µM (active) | < 0.01 µM (active) | < 0.01 µM (active) | < 0.01 µM (active) | < 0.01 µM (active) | < 0.01 µM (active) | < 0.01 µM (active) | < 0.01 µM (active) | < 0.01 µM (active) | < 0.01 µM (active) | < 0.01 µM (active) | < 0.01 µM (active) |
| OCCCCn1cc(Cn2ncc3c(SCc4ccccc4)ncnc32)nn1 | 28.7 µM (inactive) | 54.2 µM (inactive) | 28.3 | 58.3 µM (inactive) | 41.4 µM (inactive) | 42.7 µM (inactive) | 43.5 µM (inactive) | 21.3 µM (inactive) | 38.8 µM (inactive) | 34.7 µM (inactive) | 77.6 µM (inactive) | 63.1 µM (inactive) | 27.7 µM (inactive) | 38.7 µM (inactive) | 28.2 µM (inactive) | 44.5 µM (inactive) | 30.6 µM (inactive) | 75.7 µM (inactive) | 43.2 µM (inactive) | 26.7 µM (inactive) |
